Patent US7211600B2, “Methods of modulating c-kit tyrosine protein kinase function with indolinone compounds” (Sugen Inc., priority 1999, dated 2007)
pIC50: −log10 of the molar value. Read-outs that look alike come from different tables or passages of the source.

Experiments:
MO7E cells [1] = assay: Apoptosis assay: activated caspase-3 by FACS; assay type: cell-based, human
Procedure: (§1) Samples were assayed at 24 and 48 hours. To measure activated caspase-3, samples were washed with PBS and permeabilized with ice-cold 70% ethanol. The cells were then stained with PE-conjugated polyclonal rabbit anti-active caspase-3 and analyzed by FACS. To measure cleaved PARP, samples were lysed and analyzed by western blotting with an anti-PARP antibody.

MO7E cells [2] = assay: Apoptosis assay: cleaved PARP by western blotting; assay type: cell-based, human
Procedure: as §1

MO7E cells [3] = assay: cells; details: Homo sapiens, 48 h, read-out: IC50 value for inhibition of proliferation
Procedure: (§2) MO7E cells, a human myeloid leukemia cell line, were maintained in RPMI-1640 medium supplemented with 10% fetal calf serum and 10 ng/ml each IL-3 and GM-CSF.

c-kit = c-kit (Homo sapiens, UniProt P10721); details: MO7E cells, 250 ng/ml rh-SCF 15 min, pre-treatment Compound Eight 2 hours, Compound Six 22 hours
c-kit, sequence (P10721 26-976): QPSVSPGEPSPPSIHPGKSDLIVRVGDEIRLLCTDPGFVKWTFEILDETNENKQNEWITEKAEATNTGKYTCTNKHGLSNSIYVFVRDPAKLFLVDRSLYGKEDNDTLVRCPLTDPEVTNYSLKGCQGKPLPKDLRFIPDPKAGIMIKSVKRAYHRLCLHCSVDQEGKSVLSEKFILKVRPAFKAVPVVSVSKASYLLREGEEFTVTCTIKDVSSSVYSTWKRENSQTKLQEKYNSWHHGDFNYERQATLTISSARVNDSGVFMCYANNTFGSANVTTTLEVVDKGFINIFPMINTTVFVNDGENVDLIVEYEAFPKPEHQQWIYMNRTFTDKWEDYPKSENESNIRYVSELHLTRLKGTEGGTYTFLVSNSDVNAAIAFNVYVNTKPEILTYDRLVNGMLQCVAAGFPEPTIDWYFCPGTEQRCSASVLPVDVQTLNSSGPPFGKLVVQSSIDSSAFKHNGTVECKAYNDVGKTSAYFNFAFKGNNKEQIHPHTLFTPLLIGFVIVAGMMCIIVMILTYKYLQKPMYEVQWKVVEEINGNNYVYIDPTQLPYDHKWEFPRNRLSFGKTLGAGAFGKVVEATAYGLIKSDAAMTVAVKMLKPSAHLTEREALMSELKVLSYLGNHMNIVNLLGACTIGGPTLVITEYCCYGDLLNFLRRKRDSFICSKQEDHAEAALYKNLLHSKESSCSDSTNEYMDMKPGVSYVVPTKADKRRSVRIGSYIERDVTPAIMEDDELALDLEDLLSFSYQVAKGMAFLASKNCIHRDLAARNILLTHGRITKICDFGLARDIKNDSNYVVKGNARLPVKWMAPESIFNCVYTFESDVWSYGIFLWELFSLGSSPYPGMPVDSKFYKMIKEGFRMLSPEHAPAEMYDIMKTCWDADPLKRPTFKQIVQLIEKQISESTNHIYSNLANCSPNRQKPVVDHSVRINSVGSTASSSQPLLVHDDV
Procedure: as §2
MO7E cells were serum starved overnight in 0.1% serum. […] Cells were stimulated with 250 ng/ml rh-SCF for 15 minutes. Following stimulation, cells were lysed and immunoprecipitated with an anti-c-kit antibody. Phosphotyrosine and protein levels were determined by western blotting.

Compound	effect on number of apoptotic cells (activated caspase-3) (MO7E cells [1]; 5 μM, 24 or 48 hours, +/- SCF stimulation)	effect on number of apoptotic cells (activated caspase-3) (MO7E cells [1]; 25 μM, 24 hours, +/- SCF stimulation)	increase in the number of apoptotic cells (activated caspase-3) (MO7E cells [1]; 25 μM, 48 hours, SCF stimulation, compared to untreated SCF stimulated cells)	effect on number of apoptotic cells (activated caspase-3) (MO7E cells [1]; 25 μM, 48 hours, absence of SCF stimulation)	increase in cleaved PARP (MO7E cells [2]; 5 μM, both timepoints (24 and 48 hours))	increase in the amount of cleaved PARP (MO7E cells [2]; 25 μM, 48 hours)	change of the cleaved PARP effect with SCF stimulation (MO7E cells [2]; 25 μM, 48 hours, with SCF stimulation)	pIC50 (MO7E cells [3])	effect on number of apoptotic cells (activated caspase-3) (MO7E cells [1]; 5 μM, 24 hours, with or without SCF stimulation)	inhibition of c-kit tyrosine phosphorylation (c-kit; 0.01 μM)	inhibition of c-kit tyrosine phosphorylation (c-kit; 0.1 μM)	inhibition of c-kit tyrosine phosphorylation (c-kit; 1 μM)	inhibition of c-kit tyrosine phosphorylation (c-kit; 10 μM)
Cc1cc(C)c(/C=C2\C(=O)Nc3ccccc32)[nH]1 [Compound Eight]	measurable but smaller number of apoptotic cells	measurable but smaller number of apoptotic cells	approximately 50%	slight effect	very minimal increase	greatest increase	augmented slightly	–	–	–	–	–	–
Cc1[nH]c(/C=C2\C(=O)Nc3ccccc32)c(C)c1CCC(=O)O [Compound Six]	–	–	–	–	–	–	–	5.15 to 5.30	no effect	no inhibition	no inhibition	partial inhibition	complete inhibition
